Measurements taken from the Kinase Knowledgebase extract (Sharma et al. 2016).

Each molecule was assayed against ROCK1;ROCK2 (UniProt O75116) (assay: Inhibition of ROCK Kinase Activity).
Sequence of ROCK1;ROCK2 (O75116 whole entry, looked up): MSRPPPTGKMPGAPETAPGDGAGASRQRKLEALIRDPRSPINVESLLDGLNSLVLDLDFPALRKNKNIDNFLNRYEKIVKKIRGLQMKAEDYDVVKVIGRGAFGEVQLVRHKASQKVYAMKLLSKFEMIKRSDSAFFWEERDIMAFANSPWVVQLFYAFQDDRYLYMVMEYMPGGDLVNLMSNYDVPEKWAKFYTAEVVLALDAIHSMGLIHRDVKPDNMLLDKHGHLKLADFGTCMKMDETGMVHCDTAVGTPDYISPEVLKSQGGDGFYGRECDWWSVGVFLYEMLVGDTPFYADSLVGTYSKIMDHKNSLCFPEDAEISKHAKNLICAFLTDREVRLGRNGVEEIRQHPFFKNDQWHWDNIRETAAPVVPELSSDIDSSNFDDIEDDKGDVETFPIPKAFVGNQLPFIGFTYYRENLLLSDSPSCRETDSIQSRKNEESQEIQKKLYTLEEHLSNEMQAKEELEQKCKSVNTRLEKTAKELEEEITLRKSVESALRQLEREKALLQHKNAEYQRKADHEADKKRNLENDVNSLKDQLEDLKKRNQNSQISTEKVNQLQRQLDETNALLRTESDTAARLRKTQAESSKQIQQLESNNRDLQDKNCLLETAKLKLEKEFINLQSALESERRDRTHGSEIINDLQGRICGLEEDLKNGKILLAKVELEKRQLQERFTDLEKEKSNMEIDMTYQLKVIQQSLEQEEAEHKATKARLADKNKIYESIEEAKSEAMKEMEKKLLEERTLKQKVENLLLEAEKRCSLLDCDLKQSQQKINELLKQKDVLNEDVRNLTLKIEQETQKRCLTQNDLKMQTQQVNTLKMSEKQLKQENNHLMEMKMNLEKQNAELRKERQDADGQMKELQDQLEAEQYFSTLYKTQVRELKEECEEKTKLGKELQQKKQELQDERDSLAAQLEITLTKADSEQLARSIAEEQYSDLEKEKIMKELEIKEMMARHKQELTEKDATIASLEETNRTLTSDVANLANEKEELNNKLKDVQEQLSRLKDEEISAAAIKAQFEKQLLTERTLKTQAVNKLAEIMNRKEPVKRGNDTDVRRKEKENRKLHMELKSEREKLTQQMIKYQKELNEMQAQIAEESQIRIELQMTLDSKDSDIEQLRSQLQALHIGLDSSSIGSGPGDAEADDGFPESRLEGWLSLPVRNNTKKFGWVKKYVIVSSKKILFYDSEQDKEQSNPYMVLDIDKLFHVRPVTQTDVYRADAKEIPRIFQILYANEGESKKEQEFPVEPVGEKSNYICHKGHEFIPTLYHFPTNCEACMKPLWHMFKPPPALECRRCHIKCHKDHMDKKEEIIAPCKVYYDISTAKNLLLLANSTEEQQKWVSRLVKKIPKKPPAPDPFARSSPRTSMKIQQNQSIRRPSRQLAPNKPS

Ki, ≤ 2 µM:
O=C(CNc1cccc(F)c1)Nc1ccc2c(c1)C(=O)NC2=O
O=C(CSc1ccc(F)cc1F)Nc1ccc2c(c1)C(=O)NC2=O
O=C(Cc1ccc(F)cc1)Nc1ccc2c(c1)C(=O)NC2=O
O=C(CNc1cccc(OCc2ccccc2)c1)Nc1ccc2c(c1)C(=O)NC2=O
O=C(Cc1cc(F)cc(F)c1F)Nc1ccc2c(c1)C(=O)NC2=O
O=C(COc1ccc(Cl)cc1)Nc1ccc2c(c1)C(=O)NC2=O
COc1cccc(CC(=O)Nc2ccc3c(c2)C(=O)NC3=O)c1
O=C(CNc1cccc(Cl)c1)Nc1ccc2c(c1)C(=O)NC2=O
O=C(Cc1cccc(O)c1)Nc1ccc2c(c1)C(=O)NC2=O
O=C(CSc1ccc(Cl)cc1Cl)Nc1ccc2c(c1)C(=O)NC2=O
O=C(Cc1cc2c(cc1Cl)OCO2)Nc1ccc2c(c1)C(=O)NC2=O
O=C(CSc1cccc2ccccc12)Nc1ccc2c(c1)C(=O)NC2=O
O=C(Cc1ccc2c(c1)OCO2)Nc1ccc2c(c1)C(=O)NC2=O
O=C(CSc1cccc(Cl)c1)Nc1ccc2c(c1)C(=O)NC2=O
Cc1ccccc1NCC(=O)Nc1ccc2c(c1)C(=O)NC2=O
O=C(CNc1cccc2c1CCCC2)Nc1ccc2c(c1)C(=O)NC2=O
Cc1cccc(NCC(=O)Nc2ccc3c(c2)C(=O)NC3=O)c1
Cc1ccc(SCC(=O)Nc2ccc3c(c2)C(=O)NC3=O)c(C)c1
COc1ccc(NCC(=O)Nc2ccc3c(c2)C(=O)NC3=O)cc1Cl
CC(Oc1ccccc1)C(=O)Nc1ccc2c(c1)C(=O)NC2=O (stereo not given)
O=C(Cc1ccc(Cl)c(Cl)c1)Nc1ccc2c(c1)C(=O)NC2=O
O=C(Cc1cc(F)ccc1F)Nc1ccc2c(c1)C(=O)NC2=O
O=C(CSc1cccc(Br)c1)Nc1ccc2c(c1)C(=O)NC2=O
O=C(CSc1ccccc1F)Nc1ccc2c(c1)C(=O)NC2=O
O=C(CSc1cccc(Cl)c1Cl)Nc1ccc2c(c1)C(=O)NC2=O
O=C(Cc1cccc(F)c1)Nc1ccc2c(c1)C(=O)NC2=O
O=C(Cc1ccc(F)cc1Cl)Nc1ccc2c(c1)C(=O)NC2=O
Cc1cc(C)cc(SCC(=O)Nc2ccc3c(c2)C(=O)NC3=O)c1
Cc1ccc(OCC(=O)Nc2ccc3c(c2)C(=O)NC3=O)cc1
O=C(Cc1ccc(F)cc1F)Nc1ccc2c(c1)C(=O)NC2=O
Cc1ccc(SCC(=O)Nc2ccc3c(c2)C(=O)NC3=O)cc1
O=C(Cc1cc(Cl)ccc1F)Nc1ccc2c(c1)C(=O)NC2=O
O=C(Cc1cccc(C(F)(F)F)c1F)Nc1ccc2c(c1)C(=O)NC2=O
COc1ccc(CC(=O)Nc2ccc3c(c2)C(=O)NC3=O)cc1
O=C(Cc1ccccc1F)Nc1ccc2c(c1)C(=O)NC2=O
O=C(Cc1ccc(Cl)cc1)Nc1ccc2c(c1)C(=O)NC2=O
O=C(CCc1ccccc1)Nc1ccc2c(c1)C(=O)NC2=O
O=C(Cc1cccc(C(F)(F)F)c1)Nc1ccc2c(c1)C(=O)NC2=O
O=C(CSc1ccccc1C(F)(F)F)Nc1ccc2c(c1)C(=O)NC2=O
O=C(Cc1cc(F)c(Cl)cc1Cl)Nc1ccc2c(c1)C(=O)NC2=O
O=C(CSc1cccc(O)c1)Nc1ccc2c(c1)C(=O)NC2=O
O=C(CSc1ccc(Cl)c(Cl)c1)Nc1ccc2c(c1)C(=O)NC2=O
O=C(COc1ccccc1)Nc1ccc2c(c1)C(=O)NC2=O
O=C(Cc1cccc(Cl)c1)Nc1ccc2c(c1)C(=O)NC2=O
Cc1ccc(NCC(=O)Nc2ccc3c(c2)C(=O)NC3=O)c(C)c1
O=C(CSc1ccccc1Cl)Nc1ccc2c(c1)C(=O)NC2=O
COc1cccc(OCC(=O)Nc2ccc3c(c2)C(=O)NC3=O)c1
O=C(CNc1ccc(F)c(Cl)c1)Nc1ccc2c(c1)C(=O)NC2=O
O=C(CSc1ccc(F)c(Cl)c1)Nc1ccc2c(c1)C(=O)NC2=O
COc1cccc(NCC(=O)Nc2ccc3c(c2)C(=O)NC3=O)c1
O=C(CNc1cccc2[nH]ccc12)Nc1ccc2c(c1)C(=O)NC2=O
O=C(Cc1ccccc1Cl)Nc1ccc2c(c1)C(=O)NC2=O
O=C(Cc1cccc(F)c1F)Nc1ccc2c(c1)C(=O)NC2=O
O=C(CSc1ccc(F)cc1)Nc1ccc2c(c1)C(=O)NC2=O
O=C(CSc1ccccc1)Nc1ccc2c(c1)C(=O)NC2=O
